In PMC12281424, “A Rac-specific competitive inhibitor of guanine nucleotide binding reduces metastasis in triple-negative breast cancer” (Cell Reports Medicine, 2025):
Where “and” joins values, the source holds several entries; their conditions need not be identical. Equal entries are not always repeated.

Columns and labels:
MLK3(h) = MLK3(h) (Homo sapiens, UniProt Q16584); experiment: Kinase Profiler; format: biochemical
Description: (§1) Blood cell counts, kinase profiler, safety screen, bacterial cytotoxicity, Ames, micronucleus assays were performed by the company Eurofins (France). The kinase profiler was performed by the company Eurofins (Discovery, Panlab and Cerep).

Adenosine A2A = Adenosine A2A (Homo sapiens, UniProt P29274); experiment: Safety screen; format: binding
Description: (§2) The kinase profiler was performed by the company Eurofins (Discovery, Panlab and Cerep).

TA1537 = experiment: Bacterial cytotoxicity; format: cell-based
Excerpt: Data S2. Bacterial cytotoxicity of A41.
Test Concentration %Effect Cytotoxicity (% of control) […]
Bacterial cytotoxicity (TA1537 - S9)

NEK3(h) = NEK3(h) (Homo sapiens, UniProt P51956); experiment: Kinase Profiler; format: biochemical
Description: as §2

PKG1α(h) = PKG1α(h) (Homo sapiens, UniProt Q13976); experiment: Kinase Profiler; format: biochemical
Description: as §2

SAPK2a(T106M)(h) = SAPK2a(T106M)(h) (Homo sapiens, UniProt Q16539, T106M); experiment: Kinase Profiler; format: biochemical
Description: as §2

Lyn(h) = Lyn(h) (Homo sapiens, UniProt P07948); experiment: Kinase Profiler; format: biochemical
Lyn(h), sequence (P07948 whole entry): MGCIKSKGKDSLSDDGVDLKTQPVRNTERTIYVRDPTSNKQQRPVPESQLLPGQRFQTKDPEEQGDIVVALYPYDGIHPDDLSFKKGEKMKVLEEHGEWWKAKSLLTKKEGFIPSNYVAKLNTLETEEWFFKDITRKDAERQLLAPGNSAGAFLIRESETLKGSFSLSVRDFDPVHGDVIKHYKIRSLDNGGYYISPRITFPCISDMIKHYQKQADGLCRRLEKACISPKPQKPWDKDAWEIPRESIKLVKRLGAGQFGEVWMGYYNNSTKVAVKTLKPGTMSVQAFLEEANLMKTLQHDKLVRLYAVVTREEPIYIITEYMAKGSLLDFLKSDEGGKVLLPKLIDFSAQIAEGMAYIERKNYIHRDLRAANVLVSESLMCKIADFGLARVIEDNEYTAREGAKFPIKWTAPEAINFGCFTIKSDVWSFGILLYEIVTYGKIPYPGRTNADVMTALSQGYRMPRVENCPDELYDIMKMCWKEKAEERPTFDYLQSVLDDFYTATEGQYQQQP
Description: as §2

SGK(h) = SGK(h) (Homo sapiens, UniProt O00141); experiment: Kinase Profiler; format: biochemical
Description: as §2

Met(D1246N)(h) = Met(D1246N)(h) (Homo sapiens, UniProt P08581, D1228N); experiment: Kinase Profiler; format: biochemical
Description: as §2

AMPKα1(h) = AMPKα1(h) (Homo sapiens, UniProt Q13131); experiment: Kinase Profiler; format: biochemical
Description: as §1

Chemokine CCR1 = Chemokine CCR1 (Homo sapiens, UniProt P32246); experiment: Safety screen; format: binding
Description: (§3) Blood cell counts, kinase profiler, safety screen, bacterial cytotoxicity, Ames, micronucleus assays were performed by the company Eurofins (France).

Txk(h) = Txk(h) (Homo sapiens, UniProt P42681); experiment: Kinase Profiler; format: biochemical
Description: as §1

[1] = target: PI3K (p110a(E542K)/p85a)(m) (Mus musculus, UniProt P42337, E542K); experiment: Kinase Profiler; format: biochemical
Description: as §2

ASK1(h) = ASK1(h) (Homo sapiens, UniProt Q99683); experiment: Kinase Profiler; format: biochemical
Description: as §1

SGK2(h) = SGK2(h) (Homo sapiens, UniProt Q9HBY8); experiment: Kinase Profiler; format: biochemical
SGK2(h), sequence (Q9HBY8 whole entry): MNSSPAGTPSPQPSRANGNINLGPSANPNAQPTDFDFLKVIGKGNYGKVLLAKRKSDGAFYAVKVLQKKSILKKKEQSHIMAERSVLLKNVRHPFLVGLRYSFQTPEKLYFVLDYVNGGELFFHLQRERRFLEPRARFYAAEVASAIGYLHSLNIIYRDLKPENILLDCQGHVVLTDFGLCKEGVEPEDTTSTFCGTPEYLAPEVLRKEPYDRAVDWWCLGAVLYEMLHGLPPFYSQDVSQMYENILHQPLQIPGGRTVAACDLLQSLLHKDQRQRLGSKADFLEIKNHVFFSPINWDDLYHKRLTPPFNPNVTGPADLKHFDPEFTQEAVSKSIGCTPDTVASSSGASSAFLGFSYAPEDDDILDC
Description: as §2

STK32B(h) = STK32B(h) (Homo sapiens, UniProt Q9NY57); experiment: Kinase Profiler; format: biochemical
STK32B(h), sequence (Q9NY57 whole entry): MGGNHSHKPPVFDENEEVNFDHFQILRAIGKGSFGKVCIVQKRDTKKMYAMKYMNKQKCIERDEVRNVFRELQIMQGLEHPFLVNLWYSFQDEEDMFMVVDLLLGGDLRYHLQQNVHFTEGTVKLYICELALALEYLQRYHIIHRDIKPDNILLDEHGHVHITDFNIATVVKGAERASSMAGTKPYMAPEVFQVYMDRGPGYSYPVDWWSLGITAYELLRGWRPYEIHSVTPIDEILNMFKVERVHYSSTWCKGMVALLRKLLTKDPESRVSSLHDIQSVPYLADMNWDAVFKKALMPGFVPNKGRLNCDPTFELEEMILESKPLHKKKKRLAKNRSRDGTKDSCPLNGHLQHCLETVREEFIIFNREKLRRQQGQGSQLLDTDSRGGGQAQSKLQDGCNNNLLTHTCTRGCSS
Description: as §2

Transporter, Adenosine = experiment: Safety screen; format: binding, guinea pig
Description: as §3

MAK(h) = MAK(h) (Homo sapiens, UniProt P20794); experiment: Kinase Profiler; format: biochemical
Description: as §2

PAK5(h) = PAK5(h) (Homo sapiens, UniProt Q9P286); experiment: Kinase Profiler; format: biochemical
PAK5(h), sequence (Q9P286 whole entry): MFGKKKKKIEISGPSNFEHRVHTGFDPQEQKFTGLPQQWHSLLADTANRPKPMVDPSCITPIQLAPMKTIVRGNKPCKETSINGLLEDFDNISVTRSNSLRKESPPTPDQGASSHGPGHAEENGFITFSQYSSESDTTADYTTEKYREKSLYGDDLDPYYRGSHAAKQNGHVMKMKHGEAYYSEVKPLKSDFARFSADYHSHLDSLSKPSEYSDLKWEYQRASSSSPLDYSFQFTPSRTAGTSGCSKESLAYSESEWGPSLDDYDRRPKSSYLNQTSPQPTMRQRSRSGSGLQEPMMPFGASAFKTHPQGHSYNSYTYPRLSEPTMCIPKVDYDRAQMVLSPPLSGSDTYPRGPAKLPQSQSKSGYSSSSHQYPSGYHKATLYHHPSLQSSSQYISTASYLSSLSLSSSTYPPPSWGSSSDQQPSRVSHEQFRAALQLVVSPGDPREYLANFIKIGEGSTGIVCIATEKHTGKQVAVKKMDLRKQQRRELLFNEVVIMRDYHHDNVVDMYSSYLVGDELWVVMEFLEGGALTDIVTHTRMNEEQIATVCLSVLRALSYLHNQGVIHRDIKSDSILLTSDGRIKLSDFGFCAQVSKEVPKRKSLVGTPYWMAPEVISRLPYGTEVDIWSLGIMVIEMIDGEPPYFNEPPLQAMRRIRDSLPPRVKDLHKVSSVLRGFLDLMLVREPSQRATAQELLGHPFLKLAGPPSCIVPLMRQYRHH
Description: as §2

LOK(h) = LOK(h) (Homo sapiens, UniProt O94804); experiment: Kinase Profiler; format: biochemical
LOK(h), sequence (O94804 whole entry): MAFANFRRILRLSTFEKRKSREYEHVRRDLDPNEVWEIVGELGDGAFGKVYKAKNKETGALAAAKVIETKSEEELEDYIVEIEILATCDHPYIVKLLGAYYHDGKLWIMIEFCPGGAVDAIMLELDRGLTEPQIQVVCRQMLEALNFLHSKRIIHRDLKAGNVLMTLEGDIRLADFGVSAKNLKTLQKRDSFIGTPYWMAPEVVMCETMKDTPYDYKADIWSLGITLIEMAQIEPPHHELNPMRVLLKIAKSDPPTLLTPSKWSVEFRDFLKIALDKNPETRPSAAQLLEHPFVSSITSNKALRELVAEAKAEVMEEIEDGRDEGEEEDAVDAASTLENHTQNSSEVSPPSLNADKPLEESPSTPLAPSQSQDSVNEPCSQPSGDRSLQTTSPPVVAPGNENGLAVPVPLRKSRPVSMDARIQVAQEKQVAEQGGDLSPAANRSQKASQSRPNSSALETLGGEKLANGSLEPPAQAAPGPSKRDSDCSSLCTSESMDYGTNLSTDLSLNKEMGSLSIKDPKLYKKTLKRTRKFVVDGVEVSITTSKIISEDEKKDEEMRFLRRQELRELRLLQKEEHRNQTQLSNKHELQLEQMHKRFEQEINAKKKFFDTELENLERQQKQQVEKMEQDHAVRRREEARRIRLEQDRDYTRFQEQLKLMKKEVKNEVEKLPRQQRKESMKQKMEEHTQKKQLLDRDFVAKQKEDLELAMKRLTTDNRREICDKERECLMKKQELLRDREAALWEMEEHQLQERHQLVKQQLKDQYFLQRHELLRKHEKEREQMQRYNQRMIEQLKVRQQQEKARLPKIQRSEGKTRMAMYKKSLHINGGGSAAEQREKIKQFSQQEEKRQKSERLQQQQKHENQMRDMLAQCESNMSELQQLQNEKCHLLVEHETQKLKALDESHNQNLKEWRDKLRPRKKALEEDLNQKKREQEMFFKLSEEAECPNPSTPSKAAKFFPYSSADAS
Description: as §2

Snk(h) = Snk(h) (Homo sapiens, UniProt Q9NYY3); experiment: Kinase Profiler; format: biochemical
Snk(h), sequence (Q9NYY3 whole entry): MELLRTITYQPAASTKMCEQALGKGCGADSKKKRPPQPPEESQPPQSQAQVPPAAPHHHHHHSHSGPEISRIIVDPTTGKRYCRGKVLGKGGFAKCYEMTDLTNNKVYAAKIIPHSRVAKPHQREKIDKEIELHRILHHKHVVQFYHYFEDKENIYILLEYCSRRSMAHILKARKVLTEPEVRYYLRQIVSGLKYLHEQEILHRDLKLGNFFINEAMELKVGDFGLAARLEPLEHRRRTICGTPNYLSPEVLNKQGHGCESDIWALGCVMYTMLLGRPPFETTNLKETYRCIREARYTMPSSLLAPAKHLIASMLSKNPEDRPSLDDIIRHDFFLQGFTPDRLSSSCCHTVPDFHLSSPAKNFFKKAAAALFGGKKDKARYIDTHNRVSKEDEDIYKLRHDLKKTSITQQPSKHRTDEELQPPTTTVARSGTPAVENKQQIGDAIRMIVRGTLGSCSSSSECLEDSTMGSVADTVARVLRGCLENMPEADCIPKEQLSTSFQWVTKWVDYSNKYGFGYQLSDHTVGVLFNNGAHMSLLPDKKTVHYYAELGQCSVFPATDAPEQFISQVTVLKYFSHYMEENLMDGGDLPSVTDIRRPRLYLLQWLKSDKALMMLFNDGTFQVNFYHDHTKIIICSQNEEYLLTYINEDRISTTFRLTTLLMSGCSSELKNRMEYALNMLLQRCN
Description: as §2

FGFR2(h) = FGFR2(h) (Homo sapiens, UniProt P21802); experiment: Kinase Profiler; format: biochemical
Description: as §2

LATS1(h) = LATS1(h) (Homo sapiens, UniProt O95835); experiment: Kinase Profiler; format: biochemical
LATS1(h), sequence (O95835 whole entry): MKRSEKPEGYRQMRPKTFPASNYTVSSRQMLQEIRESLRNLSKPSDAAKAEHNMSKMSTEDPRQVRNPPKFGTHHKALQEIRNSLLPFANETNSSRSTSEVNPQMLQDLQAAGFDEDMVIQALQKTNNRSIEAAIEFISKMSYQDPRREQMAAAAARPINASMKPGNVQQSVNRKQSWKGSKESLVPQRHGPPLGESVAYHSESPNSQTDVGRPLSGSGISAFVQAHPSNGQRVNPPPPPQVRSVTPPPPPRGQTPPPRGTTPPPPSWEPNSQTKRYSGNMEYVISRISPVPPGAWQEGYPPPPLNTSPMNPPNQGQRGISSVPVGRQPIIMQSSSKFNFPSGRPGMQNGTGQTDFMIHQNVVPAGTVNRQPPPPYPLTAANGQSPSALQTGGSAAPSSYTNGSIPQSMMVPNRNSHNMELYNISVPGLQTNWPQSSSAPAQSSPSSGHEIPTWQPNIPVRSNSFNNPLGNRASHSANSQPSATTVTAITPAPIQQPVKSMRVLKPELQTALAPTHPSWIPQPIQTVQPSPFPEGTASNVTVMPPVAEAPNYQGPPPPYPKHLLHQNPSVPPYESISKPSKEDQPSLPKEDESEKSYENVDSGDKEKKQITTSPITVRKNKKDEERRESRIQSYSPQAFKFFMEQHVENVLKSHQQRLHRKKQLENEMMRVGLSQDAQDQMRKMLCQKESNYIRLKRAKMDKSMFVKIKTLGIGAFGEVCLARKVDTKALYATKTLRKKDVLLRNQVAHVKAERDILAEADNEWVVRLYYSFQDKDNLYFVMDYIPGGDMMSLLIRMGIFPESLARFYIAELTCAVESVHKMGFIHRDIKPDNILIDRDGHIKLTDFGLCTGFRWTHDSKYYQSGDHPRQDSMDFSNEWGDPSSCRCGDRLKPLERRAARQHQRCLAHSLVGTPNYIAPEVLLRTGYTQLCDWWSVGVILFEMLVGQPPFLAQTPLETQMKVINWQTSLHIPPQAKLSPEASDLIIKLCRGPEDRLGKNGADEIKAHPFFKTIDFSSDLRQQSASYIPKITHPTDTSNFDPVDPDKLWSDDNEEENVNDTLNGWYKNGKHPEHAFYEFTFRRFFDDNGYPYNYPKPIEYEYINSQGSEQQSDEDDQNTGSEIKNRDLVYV
Description: as §2

breast CAF spheroids = experiment: 3D invasion assay; format: cell-based, human; details: 10^-5 M
Description: Figure 5 A41 decreases growth and invasiveness of TNBC cells in vitro (A) Representative images of RAC-GTP levels (red) in MDA-MB-468 Luc cells in the absence (CTL) and presence of EHT1864, NSC23766, or A41 (1 h at 10 μM) (left). Luciferase (Luc, green) was used to detect the cells. RAC-GTP mean fluorescence intensity was quantified inside the cell area (right) (n = 31–37 cells from 3 independent experiments; ∗p < 0.05, ∗∗∗p < 0.001) (scale bars: 10 μm). […] (C) Quantification of colony number of indicated cancer cell lines in the presence of A41 (10 μM) expressed as the percentage of control in the absence of A41. Results shown are representative of N > 3 independent experiments. (D) Immunoblot analysis and corresponding quantification of AKT and P44/42 expression and phosphorylation (pAKT, p44/42) in MDA-MB-468 Luc cells in the absence (−) and presence of NSC23766 or A41 (1 h at 10^−5 M). […] (E) 3D invasion assay of MDA-MB-468 Luc and cancer-associated fibroblasts (CAFs) and corresponding quantification (scale bars: 200 μm). […]
3D-spheroids were obtained, according the protocol previously described,[62] by re-suspending cells at a concentration of 1.25 × 10^4 cells/ml in 20% Methyl-cellulose/80% DMEM 10% FBS. […] Invasion was monitored by fully automated Dmi6000b Wide Field Fluorescence Microscope (Leica Microsystems, Wetzlar, Germany) during 48h.

HRI(h) = HRI(h) (Homo sapiens, UniProt Q9BQI3); experiment: Kinase Profiler; format: biochemical
Description: as §2

## COc1ccc(OC)c(NS(=O)(=O)c2ccc(NC(=O)CCSc3ccc(C)cc3)cc2)c1 [Compound A41]
MLK3(h)
  Activity(%): 115%
Adenosine A2A
  % inh.: 16%
TA1537; - S9, 1.0E-04 M
  %Effect, single replicates (1st, 2nd, 3rd): 222.5% and 214.4% and 229.2%
  Cytotoxicity (% of control), Mean %Effect: 222.0%
TA1537; - S9, 1.0E-05 M
  %Effect, single replicates (1st, 2nd, 3rd): 109.9% and 108.6% and 111.2%
  Cytotoxicity (% of control), Mean %Effect: 109.9%
TA1537; - S9, 1.2E-06 M
  %Effect, single replicates (1st, 2nd, 3rd): 109.9% and 108.6% and 101.9%
  Cytotoxicity (% of control), Mean %Effect: 106.8%
TA1537; - S9, 2.5E-05 M
  %Effect, single replicates (1st, 2nd, 3rd): 128.7% and 115.3% and 112.6%
  Cytotoxicity (% of control), Mean %Effect: 118.8%
TA1537; - S9, 2.5E-06 M
  %Effect, single replicates (1st, 2nd, 3rd): 111.2% and 104.5% and 99.2%
  Cytotoxicity (% of control), Mean %Effect: 105.0%
TA1537; - S9, 5.0E-05 M
  %Effect, single replicates (1st, 2nd, 3rd): 162.2% and 150.1% and 148.8%
  Cytotoxicity (% of control), Mean %Effect: 153.7%
TA1537; - S9, 5.0E-06 M
  %Effect, single replicates (1st, 2nd, 3rd): 116.6% and 111.2% and 100.5%
  Cytotoxicity (% of control), Mean %Effect: 109.4%
TA1537; - S9, 6.0E-07 M
  %Effect, single replicates (1st, 2nd, 3rd): 107.2% (2×) and 115.3%
  Cytotoxicity (% of control), Mean %Effect: 109.9%
NEK3(h)
  Activity(%): 107%
PKG1α(h)
  Activity(%): 113%
SAPK2a(T106M)(h)
  Activity(%): 98%
Lyn(h)
  Activity(%): 109%
SGK(h)
  Activity(%): 116%
Met(D1246N)(h)
  Activity(%): 119%
AMPKα1(h)
  Activity(%): 102%
Chemokine CCR1
  % inh.: 2%
Txk(h)
  Activity(%): 118%
[1]
  Activity(%): 99%
ASK1(h)
  Activity(%): 94%
SGK2(h)
  Activity(%): 117%
STK32B(h)
  Activity(%): 105%
Transporter, Adenosine
  % inh.: 37%
MAK(h)
  Activity(%): 117%
PAK5(h)
  Activity(%): 105%
LOK(h)
  Activity(%): 112%
Snk(h)
  Activity(%): 112%
FGFR2(h)
  Activity(%): 89%
LATS1(h)
  Activity(%): 98%
Breast CAF spheroids
  invasion of CAF spheroids: anti-invasion property
HRI(h)
  Activity(%): 98%
